The text below walks through data of US11312721B2 (priority 2015, dated 2022).

Entries after “also recorded” stand apart in the source; their conditions may differ. Where two headings read alike, the source gives them in different places.

The test system of series [1] is aged-impaired (AI) rats. Briefly: Radial Arm Maze (RAM) behavioral task, spatial memory retention. Type of series: in vivo, rat. To be noted: 3 mg/kg ip, two-hour delay RAM. The procedure:
The effects of methyl 3,5-diphenylpyridazine-4-carboxylate on the in vivo spatial memory retention of aged-impaired (AI) rats were assessed in a Radial Arm Maze (RAM) behavioral task using vehicle control and four different dosage levels of methyl 3,5-diphenylpyridazine-4-carboxylate ([…]). RAM behavioral tasks were performed on eight AI rats. All five treatment conditions (vehicle and four dosage levels) were tested on all eight rats.
The RAM apparatus used consisted of eight equidistantly-spaced arms. An elevated maze arm (7 cm width×75 cm length) projected from each facet of an octagonal center platform (30 cm diameter, 51.5 cm height). Clear side walls on the arms were 10 cm high and were angled at […] to form a trough. A food well (4 cm diameter, 2 cm deep) was located at the distal end of each arm. Froot Loops™ (Kellogg Company) were used as rewards. Blocks constructed of Plexiglas™ (30 cm height×12 cm width) could be positioned to prevent entry to any arm. Numerous extra maze cues surrounding the apparatus were also provided.
The AI rats were initially subjected to a pre-training test (Chappell et al. Neuropharmacology 37: 481-487, 1998). The pre-training test consisted of a habituation phase (4 days), a training phase on the standard win-shift task (18 days) and another training phase (14 days) in which a brief delay was imposed between presentation of a subset of arms designated by the experimenter (e.g., 5 arms available and 3 arms blocked) and completion of the eight-arm win-shift task (i.e., with all eight arms available).
In the habituation phase, rats were familiarized to the maze for an 8-minute session on four consecutive days. In each of these sessions, food rewards were scattered on the RAM, initially on the center platform and arms and then progressively confined to the arms. After this habituation phase, a standard training protocol was used, in which a food pellet was located at the end of each arm. Rats received one trial each day for 18 days. Each daily trial terminated when all eight food pellets had been obtained or when either 16 choices were made or 15 minutes had elapsed. After completion of this training phase, a second training phase was carried out in which the memory demand was increased by imposing a brief delay during the trial. At the beginning of each trial, three arms of the eight-arm maze were blocked. Rats were allowed to obtain food on the five arms to which access was permitted during this initial “information phase” of the trial. Rats were then removed from the maze for 60 seconds, during which time the barriers on the maze were removed, thus allowing access to all eight arms. Rats were then placed back onto the center platform and allowed to obtain the remaining food rewards during this “retention test” phase of the trial. […]

Series [2] is classed as in vivo, Long Evans rats. The following applies: i.v. The procedure: (§1) Food and water were available ad libitum.
For plasma exposures, blood samples were centrifuged at 14000 rpm for 16 minutes. After centrifuging, 50 ul of supernatant (plasma) from each sample was added to 200 μl of acetonitrile plus 0.1% formic acid. […] Samples were sonicated for 5 minutes in an ultrasonic water bath, followed by centrifugation for 30 minutes, at 16000 RPM. 100 ul of supernatant was removed from each sample vial and placed in a new glass auto sample vial, followed by the addition of 300 μl of sterile water (pH 6.5).
Additional studies were conducted in aged Long-Evans rats in order to determine the exposures at the behaviorally relevant doses in the cognition studies. Exposure in young Long-Evans rats was also determined to bridge with the receptor occupancy studies that were conducted in young Long-Evans rats. Exposures in young and aged Long-Evans rats were relatively similar (Table 4, FIG. 4).

A further series has as its target α5-containing GABAA R (Homo sapiens, UniProt P18507+P31644). The following applies: (EC20); cited from earlier work.
Another series deals with T1, GABAA α5 receptor (Rattus norvegicus, UniProt P19969).
T1 construct: from tissue
T1 sequence (P19969 32-464 limits assumed): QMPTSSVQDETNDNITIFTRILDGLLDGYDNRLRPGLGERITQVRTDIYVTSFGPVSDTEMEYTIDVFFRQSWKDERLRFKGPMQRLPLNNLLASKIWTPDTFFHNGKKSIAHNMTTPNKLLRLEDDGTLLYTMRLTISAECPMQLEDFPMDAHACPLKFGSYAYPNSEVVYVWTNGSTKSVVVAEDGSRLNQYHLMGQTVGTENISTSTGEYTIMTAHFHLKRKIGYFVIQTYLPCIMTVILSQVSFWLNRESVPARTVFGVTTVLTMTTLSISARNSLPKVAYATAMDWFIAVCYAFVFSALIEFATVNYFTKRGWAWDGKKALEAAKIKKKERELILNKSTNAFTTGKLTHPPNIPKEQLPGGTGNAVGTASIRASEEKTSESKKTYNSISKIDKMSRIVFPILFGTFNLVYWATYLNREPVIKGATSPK
Briefly: GABAA α5 receptor occupancy in vivo with Ro 15-4513 tracer. Also noted: species or system Long Evans rats.
Excerpt: as §1

A further series has as its system MAM-treated rats. To be noted: cited from earlier work.
Series [3] relates to aged-impaired (AI) rats. Briefly: Morris water maze behavioral task. The series is classed as in vivo, rat. To be noted: 100 μg ICV. The procedure:
The effects of 6,6 dimethyl-3-(3-hydroxypropyl)thio-1-(thiazol-2-yl)-6,7-dihydro-2-benzothiophen-4(5H)-one on the in vivo spatial memory retention of aged-impaired (AI) rats were assessed in a Morris water maze behavioral task. A water maze is a pool surrounded with a novel set of patterns relative to the maze.
Cognitively impaired aged rats were implanted unilaterally with a cannula into the lateral ventricle. Stereotaxic coordinates were 1.0 mm posterior to bregma, 1.5 mm lateral to midline, and 3.5 mm ventral to the skull surface. After about a week of recovery, the rats were pre-trained in a water maze for 2 days (6 trials per day) to locate a submerged escape platform hidden underneath the surface of the pool, in which the escape platform location varied from day to day. No intracerebroventricular (ICV) infusion was given during pre-training.
After pre-training, rats received ICV infusion of either 100 μg 6,6 dimethyl-3-(3-hydroxypropyl)thio-1-(thiazol-2-yl)-6,7-dihydro-2-benzothiophen-4(5H)-one (n=6) in 5 μl DMSO or vehicle DMSO (n=5) 40 min prior to water maze training and testing. Training consisted of 8 trials per day for 2 days where the hidden escape platform remained in the same location. Rats were given 60 seconds to locate the platform with a 60 seconds inter-trial interval. The rats were given a probe test (120 seconds) 24 hr. after the end of training where the escape platform was removed. During the training, there were 4 blocks, where each block had 4 training trials.
During a test trial 24 hr. after training, the escape platform was removed. The search/swim pattern of the rats was used to measure whether the rats remember where the escape platform was located during pre-trial training in order to test for the long-term memory of the rats. In this trial, “target annulus” is a designated area 1.5 times the size of the escape platform around the area where the platform was located during pre-trial training. “Opposite annulus” is a control area of the same size as the size of the target annulus, which is located opposite to the target annulus in the pool. If the rats had good long term memory, they would tend to search in the area surrounding the location where the platform was during the pre-trial training (i.e., the “target” annulus; and not the “opposite” annulus). “Time in annulus” is the amount of time in seconds that the rat spent in the target or opposite annulus area. “Number (#) of crossings” in annulus is the number of times the rat swam across the target or opposite annulus area.

Setting [4] is: probe test 24 hr. after training.

Sequence of α5-containing GABAA R (P31644 32-462): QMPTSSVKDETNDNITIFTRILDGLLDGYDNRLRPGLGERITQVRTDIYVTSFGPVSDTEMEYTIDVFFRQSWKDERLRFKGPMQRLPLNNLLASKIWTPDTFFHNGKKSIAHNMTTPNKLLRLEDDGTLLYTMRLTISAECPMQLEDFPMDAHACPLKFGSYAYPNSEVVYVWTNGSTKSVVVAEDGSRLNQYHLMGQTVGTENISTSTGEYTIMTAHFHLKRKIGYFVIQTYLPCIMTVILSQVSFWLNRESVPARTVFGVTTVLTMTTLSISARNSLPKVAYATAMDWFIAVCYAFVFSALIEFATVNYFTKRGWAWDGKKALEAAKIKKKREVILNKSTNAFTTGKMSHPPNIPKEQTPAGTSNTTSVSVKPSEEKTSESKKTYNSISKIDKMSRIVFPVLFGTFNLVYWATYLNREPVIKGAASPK
Sequence of α5-containing GABAA R (P28472 26-473 partner): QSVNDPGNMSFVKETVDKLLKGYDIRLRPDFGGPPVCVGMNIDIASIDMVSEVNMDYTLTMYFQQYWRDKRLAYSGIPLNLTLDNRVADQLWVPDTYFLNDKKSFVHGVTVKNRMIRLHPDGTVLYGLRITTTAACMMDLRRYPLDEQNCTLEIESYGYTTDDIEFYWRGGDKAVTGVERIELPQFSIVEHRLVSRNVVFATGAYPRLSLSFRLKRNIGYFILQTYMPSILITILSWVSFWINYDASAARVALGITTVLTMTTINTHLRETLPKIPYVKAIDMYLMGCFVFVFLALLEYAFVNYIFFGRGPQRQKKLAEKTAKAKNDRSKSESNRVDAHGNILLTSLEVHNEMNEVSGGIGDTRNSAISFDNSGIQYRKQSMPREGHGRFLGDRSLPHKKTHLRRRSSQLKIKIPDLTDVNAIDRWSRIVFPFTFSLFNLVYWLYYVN
Sequence of α5-containing GABAA R (P18507 40-475): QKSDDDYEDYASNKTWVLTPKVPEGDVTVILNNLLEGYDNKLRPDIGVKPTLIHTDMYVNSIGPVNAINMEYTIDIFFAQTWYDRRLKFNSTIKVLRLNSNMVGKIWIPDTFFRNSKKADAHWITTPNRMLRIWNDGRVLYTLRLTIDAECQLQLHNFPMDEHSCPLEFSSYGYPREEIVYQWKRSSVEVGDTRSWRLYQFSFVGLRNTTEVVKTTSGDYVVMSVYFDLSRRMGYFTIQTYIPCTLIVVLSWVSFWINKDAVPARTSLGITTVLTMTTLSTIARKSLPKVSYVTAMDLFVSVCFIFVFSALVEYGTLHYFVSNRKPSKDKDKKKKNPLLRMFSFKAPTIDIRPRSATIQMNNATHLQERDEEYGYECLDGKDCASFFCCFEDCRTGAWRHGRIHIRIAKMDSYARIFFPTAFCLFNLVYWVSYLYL

For `COC(=O)c1c(-c2ccccc2)cnnc1-c1ccccc1` [Methyl 3,5-diphenylpyridazine-4-carboxylate], the “average no. of errors ± SEM in retention test” value with aged-impaired (AI) rats [1] (AI rats) is given as 1.31±0.40. Also, the “memory performance relative to vehicle control” value in the series on aged-impaired (AI) rats [1] (t(7)=4.233, p=0.004) was “significantly improved memory performance”. Further, in series [2] (dose from 0.1 to 1 mg/kg), the “fold increase in hippocampal exposure” value is reported as 12 fold. In series [2] (dose from 1 to 10 mg/kg), the “fold increase in hippocampal exposure” value is recorded as roughly 5 fold and the “fold increase in plasma exposure” value was 12 fold. The “α5 in vitro efficacy” value on α5-containing GABAA R is “+27”. Further, the “effect on Ro 15-4513 binding in hippocampus and cerebellum” value on GABAA α5 receptor (0.01-10 mg/kg, i.v.) is reported as “dose-dependently reduced Ro 15-4513 binding in hippocampus, without affecting cerebellum levels of Ro 15-4513; also recorded: blocked the binding of Ro154513 in the hippocampus but did not affect binding of Ro15413 in the cerebellum”. Also, the “RO required for cognitive efficacy in this model” value at GABAA α5 receptor (from exposure in aged rats at 3 mg/kg, i.p.) is on record as 30-40%. Also, at GABAA α5 receptor (hippocampus, exposures behaviorally active in aged-impaired rats), the “GABAA α5 receptors occupied at behaviorally active exposures” value is “about 32%”. For the same compound, the “ED50 of receptor occupancy, ratio method” value on GABAA α5 receptor (i.v., hippocampus/cerebellum ratio method) stood at 1.8 mg/kg. In addition, the receptor occupancy at 1 mg/kg on GABAA α5 receptor (rat, iv, 1 mg/kg, i.v., depending on method used to determine RO, read-out: receptor occupancy at an exposure of 180 ng/g in hippocampus) lay in the range of 32 to 39%. The same compound yielded a receptor occupancy at 10 mg/kg at GABAA α5 receptor (rat, iv, 10 mg/kg) greater than 90%. Also, the ED50 (usually the dose that gives a 50% effect, or the effect in half of the subjects) on GABAA α5 receptor (rat, iv, read-out: ED50 of receptor occupancy, using L-755,608 to define occupancy) was 1.1 mg/kg.

As for `C#Cc1ccc2c(c1)C(c1ccccc1F)=N[C@H](C)c1c(C(=O)OCC)ncn1-2` [SH-053-2′F—R—CH3], in the series on MAM-treated rats (MAM rats, systemic or infused into the ventral HPC), the “number of spontaneously active DA neurons in the VTA” value is reported as “reduces the number of spontaneously active DA neurons in the ventral tegmental area (VTA) of MAM rats to levels observed in saline-treated rats”. In addition, in the series with MAM-treated rats (MAM-treated rats), the “locomotor response to amphetamine” value was “is reduced”. Besides, the “cortical-evoked responses of HPC neurons” value with MAM-treated rats (saline-treated and MAM-treated animals) is listed as “diminished cortical-evoked responses”.

In the case of `CC1(C)CC(=O)c2c(SCCCO)sc(-c3nccs3)c2C1` [6,6 dimethyl-3-(3-hydroxypropyl)thio-1-(thiazol-2-yl)-6,7-dihydro-2-benzothiophen-4(5H)-one], in the series on aged-impaired (AI) rats [3] (block 1 (beginning of training)), the “time to find the escape platform” value is recorded as “about 24 seconds”. In addition, the “time to find the escape platform” value with aged-impaired (AI) rats [3] (block 4 (end of training)) is given as “about 9.6 seconds”. For the same compound, in the series on aged-impaired (AI) rats [3] (setting [4]), the “number of crossings of target annulus compared with opposite annulus” value is reported as “crossed the “target annulus” more often” and the “time in target annulus compared with opposite annulus” value is “spent significantly more time in the target annulus”.
